Key:
BCPAP cells [1] = assay: In vitro cytotoxicity, MTT assay; assay type: cell-based; conditions: Homo sapiens, 48 h, Da/Dox mass ratio 1:1, value given for Dox, n = 3
Experimental: The cytotoxicity of peptides, free agents, and the co-assemblies towards BCPAP and L02 cells was evaluated using the standard MTT assay. Briefly, the cells were seeded into 96-well plates at a density of 8×10^3 cells per well in 100μL of DMEM medium containing 10% FBS and 1% penicillin-streptomycin. After overnight pre-incubation, the cells were treated with the compound, free agents, and co-assemblies at different concentrations for 48 h. Untreated tumor cells were used as controls. Subsequently, the medium was replaced with an MTT solution (100 μL, 0.5 mg/mL) and further cultured for 4 h. Finally, the supernatant was removed and 100 μL of DMSO was added to each well to dissolve the purple crystals. Cell viability was measured using a microplate reader by recording the absorbance of the formazan product at 570 nm.

BCPAP xenograft = assay: In vivo antitumor activity; conditions: NSG mice, i.v. every four days five times, 0.5 mg/kg Dox or Da, day 20, mean ± SD, n = 4
Experimental: (§1) All animal experiments were performed according to the protocol approved by the Animal Care and Use Committee of the Tianjin Medical University Cancer Institute and Hospital. NSG mice (5 weeks, female) were purchased from Gempharmatech Co., Ltd. (Jiangsu, China). […] The body weight and tumor size of each mouse were monitored and recorded every two days during the treatment process of 20 days. The tumor volume (V) was measured with a digital caliper and calculated using the equation: V= (L×W^2)/2, where W and L refer to the […] diameters of the tumors, respectively. At the end of the experiment, the mice were euthanized, and the tumor tissues and main organs (heart, liver, spleen, lung, and kidney) were photographed, weighed, and collected. Furthermore, the collected ex vivo tumors and main organs were fixed with 4% paraformaldehyde for the subsequent hematoxylin and eosin (H&E), terminal deoxynucleotidyl transferase-mediated deoxyuridine triphosphate nick end labeling (TUNEL), and immunohistochemical staining, including Ki67, BRAF V600E, p-ERK, Bcl-2, Bax and Cleaved-Caspase 3. Blood was obtained from the mouse eye socket for blood biochemistry and routine blood analysis, which was compared with the blank group without tumor inoculation.

BCPAP cells [2] = assay: Cell apoptosis analysis, Annexin V-APC/7-AAD flow cytometry; assay type: cell-based, human; conditions: 36 h, 0.5 µM (Dox or Da)
Experimental: Apoptosis in BCPAP cells was measured using an Annexin V-APC/7-AAD Apoptosis Detection Kit. Briefly, BCPAP cells in DMEM were seeded into 6-well plates at a density of 3×10^5 cells per well and incubated overnight. After treatment with PBS and Dox concentration of 0.5 µM for 36 h, the cells were trypsinized, collected, washed twice with cold PBS, and centrifuged at 1500 rpm for 5 min. The precipitated cells were resuspended in 500 μL Annexin V-APC binding buffer and incubated with 5 μL Annexin V-APC and 5 μL 7-AAD at room temperature for 15 min in the dark. The samples were then analyzed using a flow cytometer.

[3] = Body weight and serum ALT in the antitumor study; assay type: in vivo; conditions: tumor-bearing NSG mice, n = 4
Experimental: as §1

CC(C)(C)c1nc(-c2cccc(NS(=O)(=O)c3c(F)cccc3F)c2F)c(-c2ccnc(N)n2)s1 [Da, dabrafenib]
IC50 (BCPAP cells [1]): 2080 nM | tumor weight at the end of the experiment (BCPAP xenograft): 459.6 ± 43.2 mg | total apoptosis rate (BCPAP cells [2]): 5.17%

COc1cccc2c1C(=O)c1c(O)c3c(c(O)c1C2=O)C[C@@](O)(C(=O)CO)C[C@@H]3O[C@H]1C[C@H](N)[C@H](O)[C@H](C)O1 [Dox, doxorubicin]
body weight ([3]; 0.5 mg/kg i.v. every four days five times, 20 days): slight decrease | serum glutamic pyruvic transaminase (ALT) level ([3]; end of the antitumor experiment): elevated ALT levels | IC50 (BCPAP cells [1]): 1720 nM | tumor weight at the end of the experiment (BCPAP xenograft): 284.7 ± 36.4 mg | total apoptosis rate (BCPAP cells [2]): 7.08%
